Here are results for five molecules from ChEMBL document CHEMBL4831534, “Design, Synthesis, and Monoamine Oxidase Inhibitory Activity of (+)-Cinchonaminone and Its Simplified Derivatives” (ACS Med Chem Lett, 2021).

Some results are limits rather than exact numbers.

Assay [1] addresses T1, Amine oxidase [flavin-containing] A (Homo sapiens, UniProt P21397).
T1 sequence (P21397 whole entry): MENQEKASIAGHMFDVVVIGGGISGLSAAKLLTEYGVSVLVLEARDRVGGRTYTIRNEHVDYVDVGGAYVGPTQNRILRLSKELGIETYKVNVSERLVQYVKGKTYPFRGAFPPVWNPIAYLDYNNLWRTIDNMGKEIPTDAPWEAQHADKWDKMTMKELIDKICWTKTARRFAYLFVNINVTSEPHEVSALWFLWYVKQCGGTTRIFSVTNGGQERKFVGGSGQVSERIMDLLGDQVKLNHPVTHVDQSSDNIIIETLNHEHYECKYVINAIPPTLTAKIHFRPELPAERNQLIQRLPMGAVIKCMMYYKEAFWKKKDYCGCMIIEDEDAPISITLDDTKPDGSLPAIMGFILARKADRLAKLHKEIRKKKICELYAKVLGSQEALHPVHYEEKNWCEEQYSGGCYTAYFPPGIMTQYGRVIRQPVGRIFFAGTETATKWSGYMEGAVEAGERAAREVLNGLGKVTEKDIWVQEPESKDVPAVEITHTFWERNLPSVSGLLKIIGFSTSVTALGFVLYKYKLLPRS
Kind of assay: Inhibition of human recombinant MAO-A expressed in baculovirus infected BTI insect cells using luminogenic MAO substrate incubated for 1 hr by MAO-Glo assay.

Assay [2] addresses T2, Amine oxidase [flavin-containing] B (Homo sapiens, UniProt P27338).
T2 sequence (P27338 whole entry): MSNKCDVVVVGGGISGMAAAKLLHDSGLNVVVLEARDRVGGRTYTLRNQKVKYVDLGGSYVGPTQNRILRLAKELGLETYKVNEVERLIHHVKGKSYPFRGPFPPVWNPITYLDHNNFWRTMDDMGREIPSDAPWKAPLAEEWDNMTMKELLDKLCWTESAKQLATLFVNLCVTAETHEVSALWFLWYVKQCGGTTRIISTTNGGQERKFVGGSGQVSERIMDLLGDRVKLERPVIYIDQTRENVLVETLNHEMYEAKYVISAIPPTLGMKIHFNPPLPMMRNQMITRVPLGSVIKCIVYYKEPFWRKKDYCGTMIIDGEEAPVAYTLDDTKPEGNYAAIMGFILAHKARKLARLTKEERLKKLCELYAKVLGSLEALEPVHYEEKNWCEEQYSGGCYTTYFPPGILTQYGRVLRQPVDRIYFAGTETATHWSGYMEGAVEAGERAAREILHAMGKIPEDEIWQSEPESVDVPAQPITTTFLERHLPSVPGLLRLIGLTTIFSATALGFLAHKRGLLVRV
Kind of assay: Inhibition of human recombinant MAO-B expressed in baculovirus infected BTI insect cells using luminogenic MAO substrate incubated for 1 hr by MAO-Glo assay.

The next assay is filed under the species Homo sapiens. In words: Selectivity index, ratio of IC50 for human recombinant MOA-A expressed in baculovirus infected BTI insect cells to IC50 for MAO-B expressed in baculovirus infected BTI insect cells. The following applies: time 1.0 hrs.

The IC50 is the midpoint of a concentration-inhibition curve. Regarding `O=C(CC1CCNCC1)c1cc2ccccc2[nH]1`, the results for the IC50 in assay [1] and in assay [2] were 720 µM and 66.6 µM, respectively. In addition, in the assay filed under Homo sapiens, the Selectivity Index amounted to 11.
`O=C(CC1CCNCC1)c1[nH]c2ccccc2c1CCO`: the IC50 in assay [1] and in assay [2] was > 1000 µM throughout.
Turning to `C=C[C@H]1CNCC[C@H]1CC(=O)c1[nH]c2ccccc2c1CCO`, the IC50 is > 1000 µM in assay [1] and 412 µM in assay [2].
The like results for `C=C[C@@H]1CNCC[C@@H]1CC(=O)c1[nH]c2ccccc2c1CCO` were, in that order, > 1000 µM and 488 µM.
The like results for `Cc1c(C(=O)CC2CCNCC2)[nH]c2ccccc12` were, in that order, 82.5 µM and 121 µM.
